Test results reported in patent US20240199572A1, “COMPOUNDS, COMPOSITIONS, AND METHODS FOR TREATING TYPE 2 DIABETES AND DEMENTIA” (THE BOARD OF TRUSTEES OF THE UNIVERSITY OF ILLINOIS, priority 2021, published 2024).

Assays:
ABCA1 = ABCA1 firefly reporter assay in CCF-001 cells; type: cell-based; settings: ABCA1 firefly reporter assay in CCF-001 cells (Table 8)
ABCA1 mRNA = ABCA1 mRNA - HepG2 (qRT-PCR); type: cell-based, human; settings: Homo sapiens; ABCA1 mRNA-HepG2 assay (Table 7)
From the text: qRT-PCR. For cell samples, treated cells were lysed with RLT plus lysis buffer (Qiagen). RNA was isolated with Qiagen RNEASY® Plus columns per manufacturer instructions, then reverse-transcribed to cDNA using […]® III Reverse Transcriptase (200 U/μL, Invitrogen) per supplier protocol. qPCR experiments were either performed with TAQMAN® gene expression master mix (Invitrogen) on a StepOne™ qPCR instrument or with […]® SYBR® Green SuperMix (Quanta Biosciences) on CFX Connect™ Real-Time PCR Detection System (BioRad), with fold-change quantified by ΔΔCt. For animal samples, 100 mg tissue was homogenized in 1 mL acid-guanidinium-phenol based reagent sold under the tradename TRIZOL® (Ambion), mixed vigorously in chloroform, and separated by centrifugation. Aqueous layer containing RNA was added to Qiagen RNEASY® Plus column; remaining stops were as described above for cell lysates.

EC50 (ABCA1) [nM] | EC50 (ABCA1 mRNA) [nM] | SMILES
564 | – | CCOC(=O)c1cc(Br)cc(NC(=O)c2sc(Cl)cc2S(=O)(=O)N(C)c2ccc(OCC)c(OC)c2)c1 [GR1-054, Ethyl 3-bromo-5-(5-chloro-3-(N-(4-ethoxy-3-methoxyphenyl)-N-methylsulfamoyl)thiophene-2-carboxamido)benzoate]
2020 | – | CCOc1ccc(N(C)S(=O)(=O)c2cc(Cl)sc2C(=O)Nc2cc(C(F)(F)F)cc(C(F)(F)F)c2)cc1OC [GR1-002, N-(3,5-bis (trifluoromethyl)phenyl)-5-chloro-3-(N-(4-ethoxy-3-methoxyphenyl)-N-methylsulfamoyl)thiophene-2-carboxamide]
530 | 1200 | CCOC(=O)c1cc(Cl)cc(NC(=O)c2sc(Cl)cc2S(=O)(=O)N(C)c2ccc(OC)c(OC)c2)c1 [CL3-9, Ethyl 3-chloro-5-(5-chloro-3-(N-(3,4-dimethoxyphenyl)-N-methylsulfamoyl)thiophene-2-carboxamido)benzoate]
578 | – | CCOc1ccc(N(C)S(=O)(=O)c2cc(Cl)sc2C(=O)Nc2cc(Cl)cc([N+](=O)[O-])c2)cc1OC [GR1-064, 5-Chloro-N-(3-chloro-5-nitrophenyl)-3-(N-(4-ethoxy-3-methoxyphenyl)-N-methylsulfamoyl)thiophene-2-carboxamide]
1360 | 3600 | CCOc1ccc(N(C)S(=O)(=O)c2cc(Cl)sc2C(=O)Nc2cccc(C(=O)OCCOCCOC)c2)cc1OCC [CL2-168, 2-(2-Methoxyethoxy) ethyl 3-(5-chloro-3-(N-(3,4-diethoxyphenyl)-N-methylsulfamoyl)thiophene-2-carboxamido) benzoate]
820 | – | CCOc1ccc(N(C)S(=O)(=O)c2cc(Cl)sc2C(=O)Nc2cc(Cl)ccc2F)cc1OC [GR1-001, 5-Chloro-N-(5-chloro-2-fluorophenyl)-3-(N-(4-ethoxy-3-methoxyphenyl)-N-methylsulfamoyl)thiophene-2-carboxamide]
2700 | – | CCOc1ccc(N(C)S(=O)(=O)c2cc(Cl)sc2C(=O)Nc2cccc(Cl)c2)cc1OC [GR1-046, 5-Chloro-N-(3-chlorophenyl)-3-(N-(4-ethoxy-3-methoxyphenyl)-N-methylsulfamoyl)thiophene-2-carboxamide]
4950 | 4500 | CCOC(=O)c1cccc(NC(=O)c2sc(Cl)cc2S(=O)(=O)N(C)c2cnc(OCC)c(F)c2)c1 [CL2-184, Ethyl 3-(5-chloro-3-(N-(6-ethoxy-5-fluoropyridin-3-yl)-N-methylsulfamoyl)thiophene-2-carboxamido)benzoate]
211 | – | CCOc1ccc(N(C)S(=O)(=O)c2cc(Cl)sc2C(=O)Nc2cc(Cl)cc(C(=O)Oc3ccc(C(=O)c4ccc(O)cc4)cc3)c2)cc1OC [GR1-069, 4-(4-Hydroxybenzoyl)phenyl 3-chloro-5-(5-chloro-3-(N-(4-ethoxy-3-methoxyphenyl)-N-methylsulfamoyl)thiophene-2-carboxamido)benzoate]
1620 | 3500 | CCOC(=O)c1cccc(NC(=O)c2sc(Cl)cc2S(=O)(=O)N(C)c2ccc(OCC)cc2F)c1 [CL2-143, Ethyl 3-(5-chloro-3-(N-(4-ethoxy-2-fluorophenyl)-N-methylsulfamoyl)thiophene-2-carboxamido)benzoate]
– | 4500 | CCOc1ccc(N(C)S(=O)(=O)c2ccsc2C(=O)Nc2cccc(C(=O)OC(C)C)c2)cc1 [CL1-88, Isopropyl 3-(3-(N-(4-ethoxyphenyl)-N-methylsulfamoyl)thiophene-2-carboxamido) benzoate]
8420 | > 5000 | CCOC(=O)c1cc(N)cc(NC(=O)c2sc(Cl)cc2S(=O)(=O)N(C)c2ccc(OCC)c(OCC)c2)c1 [CL2-191, Ethyl 3-amino-5-(5-chloro-3-(N-(3,4-diethoxyphenyl)-N-methylsulfamoyl)thiophene-2-carboxamido)benzoate]
– | 2800 | CCOC(=O)c1cccc(NC(=O)c2sccc2S(=O)(=O)N(C)c2ccc(OCC)c(OCC)c2)c1 [CL2-43, Ethyl 3-(3-(N-(3,4-diethoxyphenyl)-N-methylsulfamoyl)thiophene-2-carboxamido)benzoate]
– | > 5000 | CCOc1ccc(N(C)S(=O)(=O)c2ccsc2C(=O)Nc2cccc(C(=O)CC)c2)cc1 [CL1-62, 3-(N-(4-ethoxyphenyl)-N-methylsulfamoyl)-N-(3-propionylphenyl)thiophene-2-carboxamide]
4640 | > 5000 | CCOC(=O)c1cccc(NC(=O)c2sccc2S(=O)(=O)N(C)c2cccc(OCC)c2)c1 [CL2-1, Ethyl 3-(3-(N-(3-ethoxyphenyl)-N-methylsulfamoyl)thiophene-2-carboxamido)benzoate]
148 | – | CCOc1ccc(N(C)S(=O)(=O)c2cc(Cl)sc2C(=O)Nc2cc(Cl)cc(C(=O)Oc3ccc(C(=O)c4ccccc4)cc3)c2)cc1OC [GR1-068, 4-Benzoylphenyl 3-chloro-5-(5-chloro-3-(N-(4-ethoxy-3-methoxyphenyl)-N-methylsulfamoyl)thiophene-2-carboxamido)benzoate]

EC50 (ABCA1) [nM] | EC50 (ABCA1 mRNA) [nM] | SMILES
29 | 240 | CCOC(=O)c1cc(F)cc(NC(=O)c2sc(Cl)cc2S(=O)(=O)N(C)c2ccc(OCC)c(OC)c2)c1 [GR1-053, Ethyl 3-(5-chloro-3-(N-(4-ethoxy-3-methoxyphenyl)-N-methylsulfamoyl)thiophene-2-carboxamido)-5-fluorobenzoate]
– | > 5000 | CCOC(=O)c1cccc(NC(=O)c2sc(Cl)cc2S(=O)(=O)N(C)c2ccc(OCC)c(OCC)c2)n1 [CL3-2, Ethyl 6-(5-chloro-3-(N-(3,4-diethoxyphenyl)-N-methylsulfamoyl)thiophene-2-carboxamido)picolinate]
11 | – | CCOc1ccc(N(C)S(=O)(=O)c2cc(Cl)sc2C(=O)Nc2cc(Cl)cc(C(=O)Oc3ccc(C(C)=O)cc3)c2)cc1OC [GR1-067, 4-Acetylphenyl 3-chloro-5-(5-chloro-3-(N-(4-ethoxy-3-methoxyphenyl)-N-methylsulfamoyl)thiophene-2-carboxamido)benzoate]
66 | – | C#CCOc1ccc(C(=O)c2ccc(OC(=O)c3cc(Cl)cc(NC(=O)c4sc(Cl)cc4S(=O)(=O)N(C)c4ccc(OCC)c(OC)c4)c3)cc2)cc1 [GR1-019, 4-(4-(Prop-2-yn-1-yloxy)benzoyl)phenyl 3-chloro-5-(5-chloro-3-(N-(4-ethoxy-3-methoxyphenyl)-N-methylsulfamoyl)thiophene-2-carboxamido)benzoate]
1090 | – | CCOc1ccc(N(C)S(=O)(=O)c2cc(Cl)sc2C(=O)Nc2cc(F)cc(Cl)c2)cc1OC [GR1-050, 5-Chloro-N-(3-chloro-5-fluorophenyl)-3-(N-(4-ethoxy-3-methoxyphenyl)-N-methylsulfamoyl)thiophene-2-carboxamide]
– | 3700 | CCOC(=O)c1cccc(NC(=O)c2sc(Cl)cc2S(=O)(=O)N(C)c2ccc(N3CCNCC3)cc2)c1 [CL2-200, Ethyl 3-(5-chloro-3-(N-methyl-N-(4-(piperazin-1-yl)phenyl)sulfamoyl)thiophene-2-carboxamido)benzoate]
790 | – | CCOc1ccc(N(C)S(=O)(=O)c2cc(Cl)sc2C(=O)Nc2cc(Cl)cc(Cl)c2)cc1OC [GR1-049, 5-Chloro-N-(3,5-dichlorophenyl)-3-(N-(4-ethoxy-3-methoxyphenyl)-N-methylsulfamoyl)thiophene-2-carboxamide]
– | > 5000 | CCOc1ccc(N(C)S(=O)(=O)c2cc(Cl)sc2C(=O)Nc2cccc(C(=O)CC)c2)cc1OCC [CL2-64, 5-Chloro-3-(N-(3,4-diethoxyphenyl)-N-methylsulfamoyl)-N-(3-propionylphenyl)thiophene-2-carboxamide]
1240 | – | CCOc1ccc(N(C)S(=O)(=O)c2cc(Cl)sc2C(=O)Nc2cccc(Br)c2)cc1OC [GR1-048, N-(3-bromophenyl)-5-chloro-3-(N-(4-ethoxy-3-methoxyphenyl)-N-methylsulfamoyl)thiophene-2-carboxamide]
3600 | – | CCOc1ccc(N(C)S(=O)(=O)c2cc(Cl)sc2C(=O)Nc2cc(Cl)cc(Br)c2)cc1OC [GR1-051, N-(3-bromo-5-chlorophenyl)-5-chloro-3-(N-(4-ethoxy-3-methoxyphenyl)-N-methylsulfamoyl)thiophene-2-carboxamide]
269 | – | O=C(O)Cc1cccc(OCCCN(Cc2cccc(C(F)(F)F)c2Cl)CC(c2ccccc2)c2ccccc2)c1 [GW3965, reference compound]
3080 | – | CCOC(=O)c1cccc(-c2nnc(-c3sc(Cl)cc3S(=O)(=O)N(C)c3ccc(OCC)c(OC)c3)o2)c1 [GR1-015, Ethyl 3-(5-(5-chloro-3-(N-(4-ethoxy-3-methoxyphenyl)-N-methylsulfamoyl)thiophen-2-yl)-1,3,4-oxadiazol-2-yl)benzoate]
135 | – | CCOc1ccc(N(C)S(=O)(=O)c2cc(Cl)sc2C(=O)Nc2cc(Cl)cc(C(=O)Oc3ccccc3)c2)cc1OC [GR1-059, Phenyl 3-chloro-5-(5-chloro-3-(N-(4-ethoxy-3-methoxyphenyl)-N-methylsulfamoyl)thiophene-2-carboxamido)benzoate]
2530 | – | CCOc1ccc(N(C)S(=O)(=O)c2cc(Cl)sc2C(=O)Nc2cccc(F)c2)cc1OC [GR1-047, 5-Chloro-3-(N-(4-ethoxy-3-methoxyphenyl)-N-methylsulfamoyl)-N-(3-fluorophenyl)thiophene-2-carboxamide]
1550 | – | CCOc1ccc(N(C)S(=O)(=O)c2cc(Cl)sc2C(=O)Nc2cc(Cl)cc(C(F)(F)F)c2)cc1OC [GR1-052, 5-Chloro-N-(3-chloro-5-(trifluoromethyl)phenyl)-3-(N-(4-ethoxy-3-methoxyphenyl)-N-methylsulfamoyl)thiophene-2-carboxamide]
